According to ChEMBL document CHEMBL4130480, “Serinolamides and Lyngbyabellins from an Okeania sp. Cyanobacterium Collected from the Red Sea” (J Nat Prod, 2017):
Activity calls are given as the source filed them. No cut-off for these calls is given here.

Tests used:
MCF7 = experiment: Growth inhibition of human MCF7 cells after 72 hrs by MTT assay; format: functional; conditions: MCF7, 72 h
N2a = experiment: Growth inhibition of mouse Neuro2a cells after 72 hrs by MTT assay; format: functional
NCI-H460 = experiment: Growth inhibition of human H460 cells after 72 hrs by MTT assay; format: functional; conditions: NCI-H460, 72 h
Amphibalanus amphitrite = experiment: Antifouling activity against cypris stage of Amphibalanus amphitrite larvae assessed as inhibition of larval settlement at < 1 ug/ml after 48 to 120 hrs by microscopic analysis; format: functional, organism-based

| SMILES | GI50 (MCF7) [µM] | GI50 (N2a) [µM] | GI50 (NCI-H460) [µM] | inhibition (Amphibalanus amphitrite) |
| --- | --- | --- | --- | --- |
| C[C@@H]1C(=O)O[C@@H](C(C)(C)O)c2nc(cs2)C(=O)OC[C@@H](O)c2nc(cs2)C(=O)O[C@H]1CCCC(C)(Cl)Cl | 120 | 4.8 | 2.2 |  |
| CCCC(=O)N[C@@H](CC(C)C)[C@H](O)CC(=O)OC[C@@H](O)c1nc(C(=O)O[C@@H](CCCC(C)(Cl)Cl)[C@H](C)C(=O)O[C@H](c2nc(C(=O)OC)cs2)C(C)(C)O)cs1 | 9 |  |  |  |
| CCCCCCCCCCCCC/C=C(\C)C(=O)N[C@H](COC)COC(C)=O |  |  |  | Active |
| CCCCCCCCCCCCC/C=C(\C)C(=O)N[C@@H](CO)COC |  |  |  | Active |
| COC(=O)c1csc([C@@H](OC(=O)[C@@H](C)[C@H](CCCC(C)(Cl)Cl)OC(=O)c2csc([C@H](O)CO)n2)C(C)(C)O)n1 | > 160 |  |  |  |
